Data on three molecules can be found in patent US4886886A, “Substituted 1,3,4,9-tetrahydropyrano[3,4-b]indole-1-acetic acids” (American Home Products Corporation, priority 1988, dated 1989).

In assay [1] the test system is Phenylbenzoquinone-induced Writhing. The experiment in a line: Drug Effects on Phenylbenzoquinone-induced Writhing in Mice. It is filed as in vivo, Male Swiss albino mice. The conditions noted are these: mouse, 60 min before PBQ. How it is done:
A further test used to determine the utility of the compounds of the present invention is designated: Drug Effects on Phenylbenzoquinone-induced Writhing in Mice
The objective of this test is to determine the ability of test drugs to inhibit the nociceptive (pain) response of mice injected with a chemical irritant. This test is a primary screen for both peripheral and centrally acting analgesic drugs.
Male Swiss albino mice (15-25 g). The animals are fasted for 18 hours prior to use but have free access to water.
(§1) Drug Preparation and Administration:
Drugs are dissolved or suspended according to their solubility in 0.5% Tween 80 in distilled water. They are administered by gastric gavage in a volume of 5 mL/kg. For primary screening all drugs are administered at the arbitary dosage of 25 mg/kg, p.o. to a group of 10 mice.
A modification of the method of Siegmund et al, Proc. Soc. Exp. Biol. Med., 95, 729-731 […] is used. Groups of 5 mice are dosed with the test compound or vehicle control. Sixty minutes later the animals are injected i.p. with 0.3 mL/20 g body weight of a 0.02% solution of phenylbenzoquinone (PBQ; 2-phenyl-1,4-benzoquinone) and placed in individual observation boxes. The number of writhing or abdominal squirming movements made by each mouse during the following 15 min. period is counted. The experiment is repeated with another group of 5 mice and the mean number of writhes per mouse for a group of 10 mice is calculated.
Drug treated and vehicle-treated control groups are compared and the percentage protection conferred by the drug is calculated: [formula]
where c=mean number of writhes in the control group
where t=mean number of writhes in the test drug group
On the technique in general: Writhing tests count abdominal constrictions after an irritant is injected.

The next assay relates to Adjuvant Edema. The experiment in a line: Preventative Adjuvant Edema. It is filed as in vivo, Male Sprague Dawley rats. As to conditions: rat, given days 0, 1 and 2, edema volume on day 3; for Preventative Adjuvant Edema, percent inhibition: 25 mg/kg p.o. How it is done: This test is a primary screen for anti-inflammatory drugs.
Male Sprague Dawley rats (180-200 g) are used. The animals have free access to water but food is withdrawn 18 hours before testing.
Drug Preparations and Administration:
Freund's complete adjuvant is prepared by suspending 5 mg of killed and dried Mycobacterium butyricum (Difco) in 1 mL mineral oil. The test compounds are dissolved, or suspended in 0.5% Tween 80 in distilled water according to their solubility. For primary screening all drugs are administered by gastric lavage at the arbitrary dosage of 25 mg/kg, p.o. in a volume of 0.5 mL/100 g body weight to groups of 10 animals.
The method is essentially that described by Wax et al, J. Pharmacol. Exp. Ther., 192, 166-171 (1975). Groups of rats are injected intradermally in the left hind paw with 0.1 mL of Freund's complete adjuvant. The test compound or vehicle is administered immediately before the adjuvant, 24 hours and 48 hours after the adjuvant (days 0, 1 and 2). The injected hind paw volume is measured before the injection of adjuvant and 24 hrs. after the last drug administration (day 3) by means of a plethysmometer (Buxco Electronics Inc.). The difference between the hind paw volume on day 0 and day 3 represents the edema volume. Etodolac (25 mg/kg, p.o.) is included as a positive control.
The mean edema volume (expressed as mL±SEM) is calculated for each group and the percentage protection conferred by the drug is calculated: [formula] where c is the mean edema volume for the vehicle-treated (0.5% Tween 80 in distilled water) controls and t is the mean edema volume for the drug treated group.

In assay [2] the test system is reaction of rats to painful stimulation applied to an inflamed paw. The experiment in a line: Randall Selitto Test in the Rat. The conditions noted are these: po, by gastric gavage, 24 hours after adjuvant, pain threshold 1 hour later, read-out: Randall Selitto, ED50 (dose which causes analgesia in 50% of the animals). It is filed as in vivo, Male Sprague Dawley rats.
Excerpt: An additional test used to determine the utility of the compounds of the present invention is designated: Randall Selitto Test in the Rat
The objective of this test is to assess the potency of peripheral and central acting drugs in inhibiting the reaction of rats to painful stimulation applied to an inflamed paw.
Male Sprague Dawley rats (180-200 g) are used. The animals are fasted overnight prior to drug administration.
as §1
Freund's Complete Adjuvant (FCA) is prepared by suspending 5 mg killed and dried mycobacterium butyricum (Difco) in 1 mL mineral oil. The test compounds are dissolved or suspended in 0.5% Tween 80 in distilled water according to their solubility. They are administered by gastric gavage in a volume of 0.5 mL/100 g body weight to groups of 10 animals.
Ten rats are used per group. The method is essentially that described by Randall and Selitto, Arch. Int. Pharmacodyn. […] The force is continuously monitored by a pointer moving along a linear scale and is measured in grams. […] The pain threshold (vocalization) is determined 1 hour later in the inflamed paw of the treated and control groups. […]
Each animal which has a reading 1.5 times greater than the mean reading of the control-group will be considered as responsive (having an analgesic effect) to treatment. The number of animals showing an analgesic effect is then determined in each group. […]

As for `C=CCc1cccc2c3c([nH]c12)C(CC)(CC(=O)O)OCC3C` (single isomer, unassigned) [Example 3, 1-Ethyl-1,3,4,9-tetrahydro-4-methyl-8-(2-propenyl)-pyrano[3,4-b]indole-1-acetic Acid], in assay [1] (10 mg/kg p.o.), the “Phenylquinone Writhing in Mice, percent inhibition” value is on record as 20 percent inhibition. Also, the “Preventative Adjuvant Edema, percent inhibition” value in the assay on Adjuvant Edema is listed as 57 percent inhibition.
Usually ED50 stands for the midpoint of the dose-response relation. Regarding `C=CCc1c(F)ccc2c3c([nH]c12)C(CC)(CC(=O)O)OCC3` (stereo not shown) [Example 1, 1-Ethyl-7-fluoro-1,3,4,9-tetrahydro-8-(2-propenyl)-pyrano[3,4-b]indole-1-acetic Acid], the 50% effective dose (ED50) was 54.7 mg/kg in assay [1] (po, 1 h, p.o., read-out: Phenylquinone Writhing in Mice, ED50) and 0.7 mg/kg in assay [2]. For the same molecule, the “Preventative Adjuvant Edema, percent inhibition” value with Adjuvant Edema is on record as 83 percent inhibition.
For `C=CCc1cccc2c3c([nH]c12)C(CC)(CC(=O)O)OCC3` (stereo not shown) [Example 2, 1-Ethyl-1,3,4,9-tetrahydro-8-(2-propenyl)-pyrano[3,4-b]-1-acetic Acid], the “Phenylquinone Writhing in Mice, percent inhibition” value in assay [1] (200 mg/kg p.o.) worked out at 42 percent inhibition. Moreover, in the assay on Adjuvant Edema (po, 72 h, p.o.), the ED50 was determined as 9 mg/kg.
